Test systems include NCI/ADR-RES; HOP-18; RXF 631; Hs-578T; DU-145; MDA-MB-231; T47D; PC-3.
What all share (assay): NCI anticancer screen, dose series, 48 h

Each structure is given as a SMILES string.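 Protocol summary: plate cells (96-well), add compound at 5 concentrations, incubate 48 h, interpolate endpoints linearly. At the GI50, growth is halved.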 Calls of active or inactive are those of the source. No stated cut-off is given here; in the data, active = GI50 up to about 1.1 µM and inactive = higher.

On to `OC[C@H]1O[C@@H](n2cnc3cncnc32)[C@H](O)[C@@H]1O` [NEBULARINE], for which the GI50 in the experiment with NCI/ADR-RES was 0.69 µM (active); in the experiment on HOP-18 it was 2.62 µM (inactive).

As for `COC(=O)C1C(C)N1C` (stereo unspecified), the GI50 with RXF 631 is > 100 µM (inactive).

In the case of `CCOC(=O)NC(Nc1ncccn1)(C(=O)OCC)C(F)(F)F` (stereo unspecified), the GI50 in the experiment with Hs-578T was > 100 µM (inactive); in the experiment with NCI/ADR-RES, > 100 µM (inactive); in the experiment on DU-145, > 100 µM (inactive); in the experiment with MDA-MB-231 it was > 100 µM (inactive); in the experiment with T47D it was 56 µM (inactive); in the experiment with PC-3 it was > 100 µM (inactive).

For `CCOc1ccc(/C(C=O)=C(\Cl)c2ccc(OC)c(OC)c2)cc1`, the GI50 with HOP-18 and in the experiment on RXF 631 was > 100 µM (inactive) each time.

In the case of `O=C(O)C1CCCCN1c1ccccc1[N+](=O)[O-]` (stereo unspecified), the GI50 in the experiment on HOP-18 was > 100 µM (inactive).

For `O=C=C=P(c1ccccc1)(c1ccccc1)c1ccccc1`, the GI50 with HOP-18 is 21.6 µM (inactive); in the experiment with RXF 631, 62.1 µM (inactive).

As to `O=c1ccn(COC(COCc2ccccc2)COCc2ccccc2)c(=O)[nH]1`, the GI50 with Hs-578T was > 100 µM (inactive); with NCI/ADR-RES, > 100 µM (inactive); with DU-145 it was > 100 µM (inactive); in the experiment on MDA-MB-231, 55.3 µM (inactive); in the experiment with T47D, 64.1 µM (inactive); with PC-3 it was 77.6 µM (inactive).

In the case of `CCC(C(=O)O)c1ccc(OC)cc1` (stereo unspecified), the GI50 in the experiment with RXF 631 was > 100 µM (inactive).

As for `CCOC(=O)NC(Nc1ccc(Cl)cn1)(C(F)(F)F)C(F)(F)F`, the GI50 with Hs-578T, with DU-145, in the experiment on MDA-MB-231 and in the experiment with T47D was > 100 µM (inactive) throughout.

Regarding `COc1ccc(C[C@H](N)C(=O)N2C[C@H](CO)C[C@H](n3ccc(=O)[nH]c3=O)C2)cc1`, the GI50 with HOP-18 is > 100 µM (inactive).

With `O=C1c2ccccc2C(=O)N1CC(O)COc1cccc2ccccc12` (stereo unspecified), the GI50 with NCI/ADR-RES is > 100 µM (inactive); in the experiment on DU-145, > 100 µM (inactive); in the experiment with MDA-MB-231 it was > 100 µM (inactive); with T47D, > 10 µM (inactive); in the experiment with PC-3 it was > 100 µM (inactive).

For the origin of these results see ChEMBL document CHEMBL1201862, “PubChem BioAssay data set” (2004).
